The values that follow are results of earlier work, collected in publication PMC4512239 (Clinical cancer research : an official journal of the …, 2015).

For the data set the following is noted: allosteric m-TOR inhibitors; cited from earlier work.
In the case of `CO[C@H]1C[C@@H]2CC[C@@H](C)[C@@](O)(O2)C(=O)C(=O)N2CCCC[C@H]2C(=O)O[C@H]([C@H](C)C[C@@H]2CC[C@@H](OCCO)[C@H](OC)C2)CC(=O)[C@H](C)/C=C(\C)[C@@H](O)[C@@H](OC)C(=O)[C@H](C)C[C@H](C)/C=C/C=C/C=C/1C` [everolimus], the half-life is not below 24 h.

Take `CO[C@H]1C[C@@H]2CC[C@@H](C)[C@@](O)(O2)C(=O)C(=O)N2CCCC[C@H]2C(=O)O[C@H]([C@H](C)C[C@@H]2CC[C@@H](OP(C)(C)=O)[C@H](OC)C2)CC(=O)[C@H](C)/C=C(\C)[C@@H](O)[C@@H](OC)C(=O)[C@H](C)C[C@H](C)/C=C/C=C/C=C/1C` [ridaforolimus]: the half-life is not below 24 h.

With `CO[C@H]1C[C@@H]2CC[C@@H](C)[C@@](O)(O2)C(=O)C(=O)N2CCCC[C@H]2C(=O)O[C@H]([C@H](C)C[C@@H]2CC[C@@H](OC(=O)C(C)(CO)CO)[C@H](OC)C2)CC(=O)[C@H](C)/C=C(\C)[C@@H](O)[C@@H](OC)C(=O)[C@H](C)C[C@H](C)/C=C/C=C/C=C/1C` [temsirolimus], the half-life was not below 24 h.
